The text below walks through data of patent US6479482B2, “Alkylamine derivatives of dihydropyridine NPY antagonists” (Bristol-Myers Squibb Company, priority 2000, dated 2002).

Series [1] deals with NPY-induced contractions in guinea pig basilar artery. The following applies: cited from earlier work.
The test system of series [2] is NPY-induced Ca^++ entry in HEL cells. The following applies: cited from earlier work.
In series [3] the test system is NPY-related increases in diastolic blood pressure. The note with it: anesthetized guinea pig; cited from earlier work.
Series [4] deals with T1, I-125 labeled NPY and PYY in human neuroblastoma cells (Homo sapiens, UniProt P25929).
T1 construct: displacing I-125 labeled NPY and PYY in human neuroblastoma cells; endogenous in cells
T1 sequence (P25929 1-384): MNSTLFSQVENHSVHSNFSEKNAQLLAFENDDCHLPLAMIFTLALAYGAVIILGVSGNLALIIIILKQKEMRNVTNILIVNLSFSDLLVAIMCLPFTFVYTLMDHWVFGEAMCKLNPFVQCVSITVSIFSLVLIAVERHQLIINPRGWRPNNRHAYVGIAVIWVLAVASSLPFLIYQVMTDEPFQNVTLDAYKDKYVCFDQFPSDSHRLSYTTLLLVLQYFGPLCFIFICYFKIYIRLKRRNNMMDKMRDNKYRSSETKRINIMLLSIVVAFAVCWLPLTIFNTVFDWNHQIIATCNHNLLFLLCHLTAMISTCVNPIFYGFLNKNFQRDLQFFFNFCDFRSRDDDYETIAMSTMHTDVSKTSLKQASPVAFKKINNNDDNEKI
The note with it: cited from earlier work.

For series [5], the system named is NPY-induced increase in intracellular Ca^++ in SK-N-MC cells. The following applies: cited from earlier work.
Series [6] deals with NPY-induced pressor response. The following applies: pithed rat; cited from earlier work.
For series [7], the target named is T2, I-125 Bolton-Hunter labeled NPY in human neuroblastoma cells (SK-N-MC) (Homo sapiens, UniProt P25929).
T2 construct: displaces I-125 Bolton-Hunter labeled NPY in human neuroblastoma cells (SK-N-MC); endogenous in cells; host or cells: SK-N-MC human neuroblastoma cells
T2 sequence (P25929 1-384): T1 sequence (P25929 1-384)
The note with it: cited from earlier work.

In the case of `COC(=O)C1=C(C)NC(C)=C(C(=O)OC)C1c1cccc(NC(=O)NCCCN2CCN(C(C)(C)C)CC2)c1.Cl.Cl`, the melting point is 175 to 180 °C. For `O=P(O)(O)OC1[C@H](OP(=O)(O)O)[C@H](O)C(O)[C@H](O)[C@H]1OP(=O)(O)O` (stereo partly drawn) [D-Myo-inositol-1,2,6-triphosphate], the “antagonism of NPY-induced contractions” value in series [1] is “potent but non-competitive antagonist”.

The molecule `CCCN1CCN(CCCNC(=O)Nc2cccc(C3C(C(=O)OC)=C(C)NC(C)=C3C(=O)OC)c2)CC1.Cl.Cl` came in with a melting point of 190 to 200 °C. The molecule `COC(=O)C1=C(C)NC(C)=C(C(=O)OC)C1c1cccc(NC(=O)NCCCN2CCC3(CC2)OCCO3)c1` [Example 14, 4-[3-[[[[3-(1,4-Dioxa-8-azaspiro[4.5]decan-8-yl)propyl]amino]carbonyl]-amino]phenyl]-1,4-dihydro-2,6-dimethyl-3,5-pyridinedicarboxylic acid, dimethyl ester] yielded a melting point of 100 to 105 °C. Take `COC(=O)C1=C(C)NC(C)=C(C(=O)OC)C1c1cccc(NC(=O)NCCCN2CCN(C(C)C)CC2)c1.Cl.Cl`: the melting point fell in the range of 170 to 180 °C. In turn, `COC(=O)C1=C(C)NC(C)=C(C(=O)OC)C1c1cccc(NC(=O)NCCCN2CCN(CC3CC3)CC2)c1.Cl.Cl` returned a melting point of 145 to 150 °C. Still for that read-out and setting: the value for `COC(=O)C1=C(C)NC(C)=C(C(=O)OC)C1c1cccc(NC(=O)NCCCN2CCN(C3CCCC3)CC2)c1.Cl.Cl` was 195 to 200 °C. With `COC(=O)C1=C(C)NC(C)=C(C(=O)OC)C1c1cccc(NC(=O)NCCCN2CCN(C(=O)OC(C)(C)C)CC2)c1` [Example 13, 4-[3-[[[[3-[4-[(1,1-Dimethylethoxy)carbonyl]-1-piperazinyl]propyl]amino]-carbonyl]amino]phenyl]-1,4-dihydro-2,6-dimethyl-3,5-pyridinedicarboxylic acid, dimethyl ester], the melting point lay within 125 to 130 °C. With `COC(=O)C1=C(C)NC(C)=C(C(=O)OC)C1c1cccc(NC(=O)NCCCN2CCNCC2)c1.Cl.Cl`, the melting point was 120 to 130 °C. For the molecule `CCN1CCN(CCCNC(=O)Nc2cccc(C3C(C(=O)OC)=C(C)NC(C)=C3C(=O)OC)c2)CC1.Cl.Cl`, the melting point lay within 120 to 125 °C. The molecule `COC(=O)C1=C(C)NC(C)=C(C(=O)OC)C1c1ccc(F)c(NC(=O)NCCCN2CCC(C(C)(C)C)CC2)c1` [Example 21, 4-[4-Fluoro-3-[[[[3-[4-(1,1-dimethylethyl)-1-piperidinyl]propyl]amino]-carbonyl]amino]phenyl]-1,4-dihydro-2,6-dimethyl-3,5-pyridinedicarboxylic acid, dimethyl ester] showed a melting point of 191 to 193 °C. With `N=C(NCCCc1cnc[nH]1)NCCC(c1cc(F)cc(F)c1)c1ccccn1` (stereo not shown) [He 90481], the “pA2, antagonism of NPY-induced Ca++ entry” value in series [2] is 4.43. Turning to `CN(C)CC1CCC(CN=C(N)c2ccc(C[C@@H](NC(=O)[C@@H](Cc3ccccc3)NS(=O)(=O)c3ccc4ccccc4c3)C(=O)N3CCCC3)cc2)CC1` (stereo partly shown) [SR 120819A], the “antagonism of NPY-related increases in diastolic blood pressure” value in series [3] is “antagonized”. Moreover, the “displacement of I-125 labeled NPY and PYY” value in series [4] is on record as “displacing”. For the molecule `COC(=O)C1=C(C)NC(C)=C(C(=O)OC)C1c1ccc(F)c(NC(=O)NCCCN2CCC(C)CC2)c1` [Example 17, 4-[4-Fluoro-3-[[[[3-(4-methyl-1-piperidinyl)propyl]amino]carbonyl]-amino]phenyl]-1,4-dihydro-2,6-dimethyl-3,5-pyridinedicarboxylic acid, dimethyl ester], the melting point is 188 to 190 °C. As for `NC(N)=NCCC[C@@H](NC(=O)C(c1ccccc1)c1ccccc1)C(=O)NCc1ccc(O)cc1` [BIBP 3226], the “antagonism of NPY-induced increase in intracellular Ca++” value in series [5] is given as “antagonized”. In addition, the “antagonism of NPY-induced pressor response” value in series [6] is reported as “antagonizing”. Besides, in series [7], the “displacement of I-125 Bolton-Hunter labeled NPY” value is on record as “displaces”.

Take `COC(=O)C1=C(C)NC(C)=C(C(=O)OC)C1c1cccc(NC(=O)NCCCN2CCC(=O)CC2)c1.Cl`: the melting point fell in the range of 70 to 75 °C. In turn, `COC(=O)C1=C(C)NC(C)=C(C(=O)OC)C1c1ccc(F)c(NC(=O)NCCCN2CCC(C(C)C)CC2)c1` [Example 20, 4-[4-Fluoro-3-[[[[3-[4-(1-methylethyl)-1-piperidinyl]propyl]amino]-carbonyl]amino]phenyl]-1,4-dihydro-2,6-dimethyl-3,5-pyridinedicarboxylic acid, dimethyl ester] registered a melting point of 176 to 179 °C. As to `COC(=O)C1=C(C)NC(C)=C(C(=O)OC)C1c1cccc(NC(=O)NCCCN2CCN(CC(C)C)CC2)c1.Cl.Cl`, the melting point lay in the range of 165 to 170 °C.

As to `CCCCN1CCN(CCCNC(=O)Nc2cccc(C3C(C(=O)OC)=C(C)NC(C)=C3C(=O)OC)c2)CC1.Cl.Cl`, the melting point lay in the range of 145 to 150 °C.

For orientation: melting point means the temperature, or range, at which the solid turns liquid.
